From patent publication US10479795B2 (Incyte Corporation, priority 2016, dated 2019)
pIC50: −log10 of the molar value. Counter-ions that a name gives are not always drawn. Like-named read-outs stand apart in the source and are kept apart here.

Columns and labels:
[1] = test system: Phosphorylated Ribosomal Protein S6 (RPS6); assay: THP-1 RPS6 ELISA Assay; assay type: cell-based, Human; settings: THP-1 cells, read-out: PI3Kγ_THP1_RPS6_ELISA IC50
How it was run: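 IC50 values come from a curve of percent inhibition against log compound concentration, using phospho-RPS6 ELISA (450 nm) on THP-1 lysates. Cells were serum-starved overnight, exposed to compound for 2 h at 37 °C, then challenged 15 min with 10 nM MCP-1.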

[2] = target: PI3Kγ (p110γ) Recombinant Human Protein (Homo sapiens (Human), UniProt P48736); assay: PI3K-γ Scintillation Proximity Assay; assay type: biochemical; settings: read-out: PI3Kγ IC50
Sequence of PI3Kγ (p110γ) Recombinant Human Protein (P48736 whole entry): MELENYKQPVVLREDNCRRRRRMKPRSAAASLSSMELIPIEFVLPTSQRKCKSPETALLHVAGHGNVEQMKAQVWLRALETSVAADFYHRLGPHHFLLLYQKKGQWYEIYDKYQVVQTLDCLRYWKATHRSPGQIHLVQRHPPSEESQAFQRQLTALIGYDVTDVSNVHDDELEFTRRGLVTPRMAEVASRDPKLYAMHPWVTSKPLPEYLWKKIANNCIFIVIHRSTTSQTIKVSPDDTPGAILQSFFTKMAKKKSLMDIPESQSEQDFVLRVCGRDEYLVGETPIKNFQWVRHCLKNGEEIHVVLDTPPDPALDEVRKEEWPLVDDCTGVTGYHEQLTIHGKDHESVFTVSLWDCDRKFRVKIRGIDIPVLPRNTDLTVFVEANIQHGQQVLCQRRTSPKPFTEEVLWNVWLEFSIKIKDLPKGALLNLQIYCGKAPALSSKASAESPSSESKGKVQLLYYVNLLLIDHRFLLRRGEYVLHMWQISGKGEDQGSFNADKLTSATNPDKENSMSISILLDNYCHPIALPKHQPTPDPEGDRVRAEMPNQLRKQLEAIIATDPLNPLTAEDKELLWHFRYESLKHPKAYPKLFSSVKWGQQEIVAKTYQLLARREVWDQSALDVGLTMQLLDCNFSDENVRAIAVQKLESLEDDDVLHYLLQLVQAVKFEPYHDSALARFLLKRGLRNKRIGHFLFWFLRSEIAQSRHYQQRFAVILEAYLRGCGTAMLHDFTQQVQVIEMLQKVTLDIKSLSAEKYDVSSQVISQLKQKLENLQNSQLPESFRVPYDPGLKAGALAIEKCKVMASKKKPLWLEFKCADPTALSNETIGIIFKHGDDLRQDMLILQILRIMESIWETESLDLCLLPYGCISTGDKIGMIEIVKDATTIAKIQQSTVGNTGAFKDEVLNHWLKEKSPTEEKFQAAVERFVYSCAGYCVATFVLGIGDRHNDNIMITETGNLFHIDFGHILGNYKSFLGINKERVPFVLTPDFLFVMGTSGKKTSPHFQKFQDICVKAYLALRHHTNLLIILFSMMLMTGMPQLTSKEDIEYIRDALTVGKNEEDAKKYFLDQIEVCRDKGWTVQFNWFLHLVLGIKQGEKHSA
How it was run: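 Radiometric SPA readout: […] bound to WGA beads after overnight shaking, IC50 derived from % activity of DMSO control. Reaction used human p110γ, 2 μM ATP, 20 μM PIP2, pH 6.7 MOPS buffer with MgCl2, DTT, CHAPS, 2% DMSO, room temperature.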

[3] = target: PI3Kδ (p110δ/p85α) Recombinant Human Protein (Homo sapiens (Human), UniProt O00329); assay: PI3Kδ Scintillation Proximity Assay; assay type: biochemical
Sequence of PI3Kδ (p110δ/p85α) Recombinant Human Protein (O00329 whole entry): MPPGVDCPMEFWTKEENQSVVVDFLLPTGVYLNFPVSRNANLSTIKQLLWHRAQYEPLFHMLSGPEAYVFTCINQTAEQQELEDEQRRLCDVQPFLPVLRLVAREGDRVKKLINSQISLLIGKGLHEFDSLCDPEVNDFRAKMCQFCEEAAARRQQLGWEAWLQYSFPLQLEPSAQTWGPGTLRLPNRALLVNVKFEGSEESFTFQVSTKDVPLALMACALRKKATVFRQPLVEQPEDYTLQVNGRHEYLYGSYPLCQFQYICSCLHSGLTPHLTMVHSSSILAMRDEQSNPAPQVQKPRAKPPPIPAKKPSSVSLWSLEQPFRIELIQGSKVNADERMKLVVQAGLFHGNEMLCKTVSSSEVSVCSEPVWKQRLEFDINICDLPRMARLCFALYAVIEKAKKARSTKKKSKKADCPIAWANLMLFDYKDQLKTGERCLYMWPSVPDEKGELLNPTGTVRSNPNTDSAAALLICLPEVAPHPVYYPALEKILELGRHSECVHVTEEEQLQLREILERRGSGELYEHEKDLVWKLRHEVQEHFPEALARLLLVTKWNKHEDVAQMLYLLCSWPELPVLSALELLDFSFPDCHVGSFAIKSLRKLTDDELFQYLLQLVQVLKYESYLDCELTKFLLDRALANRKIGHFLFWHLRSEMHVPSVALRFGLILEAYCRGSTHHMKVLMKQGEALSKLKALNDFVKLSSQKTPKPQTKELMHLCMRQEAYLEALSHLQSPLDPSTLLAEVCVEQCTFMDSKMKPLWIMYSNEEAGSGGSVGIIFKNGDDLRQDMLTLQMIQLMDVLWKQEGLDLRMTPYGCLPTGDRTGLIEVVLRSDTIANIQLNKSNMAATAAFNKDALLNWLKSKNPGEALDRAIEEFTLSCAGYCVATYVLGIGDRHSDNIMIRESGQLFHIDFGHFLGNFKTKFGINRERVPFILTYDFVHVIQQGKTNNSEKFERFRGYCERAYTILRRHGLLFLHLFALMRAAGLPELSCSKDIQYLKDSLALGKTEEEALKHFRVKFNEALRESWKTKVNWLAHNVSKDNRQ
Sequence of PI3Kδ (p110δ/p85α) Recombinant Human Protein (P27986 whole entry partner): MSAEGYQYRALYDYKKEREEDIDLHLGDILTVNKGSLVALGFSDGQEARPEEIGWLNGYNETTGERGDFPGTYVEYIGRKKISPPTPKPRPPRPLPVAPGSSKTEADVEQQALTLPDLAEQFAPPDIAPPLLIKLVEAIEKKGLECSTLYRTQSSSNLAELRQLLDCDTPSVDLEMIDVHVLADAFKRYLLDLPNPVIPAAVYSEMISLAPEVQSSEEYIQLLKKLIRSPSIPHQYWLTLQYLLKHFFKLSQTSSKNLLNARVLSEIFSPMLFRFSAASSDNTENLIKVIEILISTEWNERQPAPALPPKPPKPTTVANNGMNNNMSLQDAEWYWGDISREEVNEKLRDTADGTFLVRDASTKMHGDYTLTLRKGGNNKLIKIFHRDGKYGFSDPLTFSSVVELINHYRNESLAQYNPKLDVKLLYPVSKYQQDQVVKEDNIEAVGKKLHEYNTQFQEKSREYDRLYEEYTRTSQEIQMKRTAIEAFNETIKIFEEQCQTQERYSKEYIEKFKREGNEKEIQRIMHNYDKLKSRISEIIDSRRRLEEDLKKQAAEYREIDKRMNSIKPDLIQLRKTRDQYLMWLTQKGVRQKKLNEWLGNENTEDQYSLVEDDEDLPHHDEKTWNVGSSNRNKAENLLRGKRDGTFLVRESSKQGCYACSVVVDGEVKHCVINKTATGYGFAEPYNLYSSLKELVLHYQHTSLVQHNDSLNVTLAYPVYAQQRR
How it was run: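 IC50 was fitted to percent solvent-control activity from SPA scintillation counts after WGA bead capture of 33P-labelled lipid product. Reaction: 120 min, room temperature, 3.4 nM p110δ/p85α, 20 μM PIP2, 2 μM ATP with tracer, MOPS pH 6.7 buffer containing MgCl2, DTT, CHAPS, 2% DMSO.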

SMILES	pIC50 [1]	pIC50 [2]	pIC50 [3]	pIC50 ([1]; Homo sapiens)
C[C@]1(O)CC[C@H](NS(=O)(=O)c2cc(-c3cnc4c(N)nc(-c5ccc(CO)cc5F)cn34)ccc2F)CC1 [Example 423, 5-(8-amino-6-(2-fluoro-4-(hydroxymethyl)phenyl)imidazo[1,2-a]pyrazin-3-yl)-2-fluoro-N-((1r,4r)-4-hydroxy-4-methylcyclohexyl)benzenesulfonamide]	> 7.00	> 7.00	> 7.00	–
Cc1ccc(S(=O)(=O)NC23COC(C)(C2)C3)cc1-c1cnc2c(N)ncnn12 [Example 424, 3-(4-Aminoimidazo[1,2-f][1,2,4]triazin-7-yl)-4-methyl-N-(1-methyl-2-oxabicyclo[2.1.1]hexan-4-yl)benzenesulfonamide trifluoroacetate salt]	–	> 7.00	6.30 to 7.00	6.30 to 7.00
Cc1ccc(S(=O)(=O)NC23COC(C)(C2)C3)cc1-c1cnc2c(N)nc(C(F)(F)F)cn12 [Example 425, 3-(8-Amino-6-(trifluoromethyl)imidazo[1,2-a]pyrazin-3-yl)-4-methyl-N-(1-methyl-2-oxabicyclo[2.1.1]hexan-4-yl)benzenesulfonamide trifluoroacetate salt]	–	> 7.00	6.30 to 7.00	> 7.00
[2H]C([2H])([2H])c1ccc(S(=O)(=O)NC23COC(C)(C2)C3)cc1-c1cnc2c(N)nc(C)nn12 [Example 426, 3-(4-Amino-2-methylimidazo[1,2-f][1,2,4]triazin-7-yl)-4-trideuteromethyl-N-(1-methyl-2-oxabicyclo[2.1.1]hexan-4-yl)benzenesulfonamide trifluoroacetate salt]	–	> 7.00	6.30 to 7.00	6.30 to 7.00
Cc1ccc(S(=O)(=O)NC23COC(CO)(C2)C3)cc1-c1cnc2c(N)nc(C(F)(F)F)nn12 [Example 427, 3-(4-Amino-2-(trifluoromethyl)imidazo[1,2-f][1,2,4]triazin-7-yl)-N-(1-(hydroxymethyl)-2-oxabicyclo[2.1.1]hexan-4-yl)-4-methylbenzenesulfonamide trifluoroacetate salt]	–	> 7.00	6.30 to 7.00	6.30 to 7.00
Cc1ccc(S(=O)(=O)NC23COC(CO)(C2)C3)cc1-c1cnc2c(N)nc(C(F)(F)F)cn12 [Example 428, 3-(8-amino-6-(trifluoromethyl)imidazo[1,2-a]pyrazin-3-yl)-N-(1-(hydroxymethyl)-2-oxabicyclo[2.1.1]hexan-4-yl)-4-methylbenzenesulfonamide trifluoroacetate salt]	–	> 7.00	6.30 to 7.00	6.30 to 7.00
Cc1ccc(S(=O)(=O)NC23COC(C#N)(C2)C3)cc1-c1cnc2c(N)nc(C(F)(F)F)cn12 [Example 429, 3-(8-Amino-6-(trifluoromethyl)imidazo[1,2-a]pyrazin-3-yl)-N-(1-cyano-2-oxabicyclo[2.1.1]hexan-4-yl)-4-methylbenzenesulfonamide trifluoroacetate salt]	–	> 7.00	6.30 to 7.00	6.30 to 7.00
Cc1ccc(S(=O)(=O)NC23CCC(CC#N)(CC2)C3)cc1-c1cnc2c(N)ncnn12 [Example 430, 3-(4-Aminoimidazo[1,2-f][1,2,4]triazin-7-yl)-N-((1s,4s)-4-(cyanomethyl)bicyclo[2.2.1]heptan-1-yl)-4-methylbenzenesulfonamide trifluoroacetate salt]	–	> 7.00	6.30 to 7.00	6.30 to 7.00
Cc1ccc(S(=O)(=O)NC23CCC(C(C)(C)O)(CC2)C3)cc1-c1cnc2c(N)ncnn12 [Example 431, 3-(4-Aminoimidazo[1,2-f][1,2,4]triazin-7-yl)-N-(4-(2-hydroxypropan-2-yl)bicyclo[2.2.1]heptan-1-yl)-4-methylbenzenesulfonamide trifluoroacetate salt]	–	> 7.00	6.30 to 7.00	6.30 to 7.00
Cc1ccc(S(=O)(=O)NC23CCC(CO)(CC2)OC3)cc1-c1cnc2c(N)ncnn12 [Example 433, 3-(4-Aminoimidazo[1,2-f][1,2,4]triazin-7-yl)-N-(1-(hydroxymethyl)-2-oxabicyclo[2.2.2]octan-4-yl)-4-methylbenzenesulfonamide trifluoroacetate salt]	–	> 7.00	6.30 to 7.00	6.30 to 7.00
Cc1ccc(S(=O)(=O)NC23CCC(CN4CCOCC4)(CC2)OC3)cc1-c1cnc2c(N)ncnn12 [Example 434, 3-(4-Aminoimidazo[1,2-f][1,2,4]triazin-7-yl)-4-methyl-N-(1-(morpholinomethyl)-2-oxabicyclo[2.2.2]octan-4-yl)benzenesulfonamide trifluoroacetate salt]	–	> 7.00	6.30 to 7.00	6.30 to 7.00
Cc1ccc(S(=O)(=O)NC23CCC(CN4CC(F)(F)C4)(CC2)OC3)cc1-c1cnc2c(N)ncnn12 [Example 435, 3-(4-Aminoimidazo[1,2-f][1,2,4]triazin-7-yl)-N-(1-((3,3-difluoroazetidin-1-yl)methyl)-2-oxabicyclo[2.2.2]octan-4-yl)-4-methylbenzenesulfonamide trifluoroacetate salt]	–	> 7.00	6.30 to 7.00	6.00 to 6.30
Cc1ccc(S(=O)(=O)NC23CCC(C(F)F)(CC2)OC3)cc1-c1cnc2c(N)ncnn12 [Example 436, 3-(4-aminoimidazo[1,2-f][1,2,4]triazin-7-yl)-N-(1-(difluoromethyl)-2-oxabicyclo[2.2.2]octan-4-yl)-4-methylbenzenesulfonamide trifluoroacetate salt]	–	> 7.00	6.30 to 7.00	6.30 to 7.00
Cc1ccc(S(=O)(=O)NC23CCC(c4nccn4C)(CC2)OC3)cc1-c1cnc2c(N)ncnn12 [Example 439, 3-(4-Aminoimidazo[1,2-f][1,2,4]triazin-7-yl)-4-methyl-N-(1-(1-methyl-1H-imidazol-2-yl)-2-oxabicyclo[2.2.2]octan-4-yl)benzenesulfonamide trifluoroacetate salt]	–	> 7.00	5.70 to 6.30	6.00 to 6.30
Cc1ccc(S(=O)(=O)NC23CCC(c4cnco4)(CC2)OC3)cc1-c1cnc2c(N)ncnn12 [Example 440, 3-(4-Aminoimidazo[1,2-f][1,2,4]triazin-7-yl)-4-methyl-N-(1-(oxazol-5-yl)-2-oxabicyclo[2.2.2]octan-4-yl)benzenesulfonamide trifluoroacetate salt]	–	> 7.00	6.30 to 7.00	6.30 to 7.00
Cc1ccc(S(=O)(=O)NC23CCC(C(C)(C)O)(CC2)OC3)cc1-c1cnc2c(N)nc(C(F)(F)F)cn12 [Example 441, 3-(8-Amino-6-(trifluoromethyl)imidazo[1,2-a]pyrazin-3-yl)-N-(1-(2-hydroxypropan-2-yl)-2-oxabicyclo[2.2.2]octan-4-yl)-4-methylbenzenesulfonamide trifluoroacetate salt]	–	> 7.00	6.30 to 7.00	6.30 to 7.00
Cc1ccc(S(=O)(=O)NC23CCC(O)(CC2)C3)cc1-c1cnc2c(N)ncnn12 [Example 442, 3-(4-Aminoimidazo[1,2-f][1,2,4]triazin-7-yl)-N-((1s,4s)-4-hydroxybicyclo[2.2.1]heptan-1-yl)-4-methylbenzenesulfonamide trifluoroacetate salt]	–	> 7.00	5.70 to 6.30	6.30 to 7.00
